Test results from patent US10723998B2, “Application of ethyl p-methoxycinnamate and derivatives thereof in maintaining self-renewal and pluripotency of stem cells” (NORTHEAST NORMAL UNIVERSITY, priority 2015, dated 2020).

Assays:
Oct4 mRNA = Oct4 mRNA expression by RT-PCR and agarose gel electrophoresis in P19 cells; assay type: cell-based, mouse; details: 5 μg/mL, 12 h, DMSO control, FIG. 2
Experimental: P19 cells were inoculated in a 6-well cell culture plate at a density of 2×10^5 cells/well. After 24 h, DMEM culture medium containing 3% serum were used for replacement. Ethyl p-methoxycinnamate was added to the experimental group to render its final concentration at 5 μg/mL, and a control group was treated with DMSO. After 12 h, the 6-well plate overgrown with monolayer cells was taken out from a cell incubator, and the cells were washed 3 times with pre-cooled PBS. 1 mL of a pre-cooled Trizol solution was added. After vigorous pipetting, the mixture was transferred to an EP tube and allowed to stand at room temperature for 5 min. Then 200 μL of chloroform was added to the mixture, vigorously mixed well for 15 s, and the mixture containing chloroform was allowed to stand at room temperature for 2 min and centrifuged at 12000 rpm at 4° C. for 15 min. An upper aqueous phase was pipetted into another EP tube, and an equal volume of pre-cooled isopropanol was added, and the mixture was inverted several times and allowed to stand at room temperature for 10 min to precipitate RNA. After centrifugation at 12000 rpm for 10 min, the supernatant was discarded, and to the precipitate was added 1 mL of 75% ethanol (prepared by 0.1% DEPC water) for washing, followed by centrifugation at 7500 rpm for 5 min (this step was repeated once). The supernatant was discarded. […]

mouse teratoma cells P19 [1] = experiment: Formation of microspheres of suspendedly cultured stem cells (soft agar, MTT dyeing); assay type: cell-based; details: 5 μg/mL, P19 cells on 0.5% soft agar, 7 d, compared with DMSO control; FIG. 4
Experimental: 5 g agar was weighed and placed in a flask, then 100 mL of ultra-pure water was added, and the mixture was mixed well, sealed, and then autoclaved for 30 min. In a super clean bench, 9 mL of pre-heated (50-60° C.) serum-free DMEM culture medium was pipetted into a 10 mL centrifuge tube, then 1 mL of uncooled 5% agar was added, and rapidly mixed well with a pipette, resulting in 0.5% agar. 1 mL of 0.5% agar was pipetted into one well of a 6-well plate and cooled at room temperature for 20-30 min, resulting in a 0.5% soft agar culture medium.
In the super clean bench, D-Hanks was gently added to the surface of the soft agar culture medium, and the D-Hanks was discarded after being gently shaken 2 to 3 times. Cleaning was repeated once. The mouse teratoma cells P19 were gently inoculated on the surface of the soft agar culture medium at a cell density of 4×10^5 cells/well. After the cell inoculation, ethyl p-methoxycinnamate was added to 1 mL of DMEM culture medium containing 10% fetal calf serum, mixed well, and then gently added to the experimental group. A final concentration of ethyl p-methoxycinnamate was 5 μg/mL. The control group was treated with DMSO. […]

mouse teratoma cells P19 [2] = experiment: Formation of microspheres of adherently cultured stem cells; assay type: cell-based; details: 5 μg/mL, 3% fetal calf serum DMEM, 22 d, compared with control, FIG. 5
Experimental: In a super clean bench, mouse teratoma cells P19 were inoculated in a 6-well plate at a density of 1×10^4 cells/well, and DMEM culture medium containing 10% fetal calf serum was added to result in a final volume of 2 mL. The cell culture plate was gently shaken, so that the cells were uniformly distributed in the cell culture plate, and then placed in a cell incubator to be cultured. After 24 h, the old culture medium were discarded, and 3% fetal calf serum DMEM culture medium containing ethyl p-methoxycinnamate was added, so that the final concentration of ethyl p-methoxycinnamate was 5 μg/mL. The original culture medium was discarded every 24 h, and fresh DMEM culture medium containing 3% fetal calf serum was added, and the final concentration of ethyl p-methoxycinnamate therein was made to be 5 μg/mL likewise. After continuous culture of 22 d, the cells were photographed.

CCOC(=O)C=Cc1ccc(OC)cc1 [ethyl p-methoxycinnamate]
effect on the expression of Oct4 mRNA (Oct4 mRNA): can significantly promote the expression of Oct4 mRNA | formation of microspheres of suspendedly cultured stem cells (mouse teratoma cells P19 [1]): the P19 cells can form a higher amount of larger and more typical microspheres | formation of microspheres of adherently cultured stem cells (mouse teratoma cells P19 [2]): the P19 cells can form typical microspheres
